Results on 13 compounds are retold here after patent US9062041B2 (Bayer Intellectual Property GmbH, priority 2011, dated 2015).

What all share (assay type): cell-based
The target of assay [1] is EP2 subtype of the human PGE2 receptor (Homo sapiens, UniProt P43116). Briefly: cAMP antagonism test on the human EP2 receptor (HTRF cAMP detection). Particulars: hEP2 receptor, read-out: Antagonism hEP2 IC50. The text has this: 1. Detection of Antagonism to the Human Prostaglandin E2 (Subtype EP2) Receptor Signal
The binding of PGE2 to the EP2 subtype of the human PGE2 receptor induces the activation of membrane-located adenylate cyclases and leads to the formation of cAMP. In the presence of the phosphodiesterase inhibitor IBMX, the cAMP accumulated owing to this stimulation and released by cell lysis is used in a competitive detection method. In this test, the cAMP present in the lysate competes with a fluorescence-labelled cAMP (cAMP-d2) for binding to an Eu cryptate-labelled anti-cAMP antibody.
(§1) In the absence of cellular cAMP, a maximal signal is produced, which is attributable to the binding of this cAMP-d2 molecule to the antibody. After excitation of the […] at 337 nm, there is a fluorescence resonance energy transfer (FRET) to the Eu cryptate molecules of the anti-cAMP antibody (labelled therewith), followed by a long-lasting emission signal at 665 nm (and at […]). Both signals are measured in a suitable measurement instrument with a time delay, i.e. after decay of the background fluorescence. Any increase in the low FRET signal caused by prostaglandin E2 administration (measured as well ratio change=emission665 nm/emission620 nm*10000) indicates the action of antagonists.
1.2.1. Test for Antagonism (Data Per Well of a 384-Well Plate):
To a test plate with the substance solutions already added (0.05 μl; 100% DMSO, concentration range from 0.8 nM-16.5 μM) were added 4 μl of a cAMP-d2/cell suspension (625000 cells/ml). After a 20-minute preincubation at room temperature (RT), 2 μl of a 3×PGE2 solution (1.5 nM, in PBS-IBMX) were added and incubated in the presence of the agonist for a further 60 mins at RT (volume: ˜6 μl). Next the reaction was stopped by addition of 2 μl of lysis buffer and incubated for a further 20 mins at RT before the actual measurement (volume: ˜8 μl).

Assay [2] deals with EP4 subtype of the human PGE2 receptor (Homo sapiens, UniProt P35408). Kind of assay: cAMP antagonism test on the human EP4 receptor (HTRF cAMP detection). Particulars: selectivity towards hEP4, IC50 measured by cAMP antagonism test.
From the text: 2. Detection of Antagonism to the Human Prostaglandin E2 (Subtype EP4) Receptor Signal
The binding of PGE2 to the EP4 subtype of the human PGE2 receptor induces the activation of membrane-located adenylate cyclases and leads to the formation of cAMP. In the presence of the phosphodiesterase inhibitor IBMX, the cAMP accumulated owing to this stimulation and released by cell lysis is used in a competitive detection method. In this test, the cAMP present in the lysate competes with a fluorescence-labelled cAMP (cAMP-d2) for binding to an Eu cryptate-labelled anti-cAMP antibody.
as §1, with “cAMP” for “cAMP,”
2.2.1. Test for Antagonism (Data Per Well of a 384-Well Plate):
To a test plate with the substance solutions already added (0.05 μl; 100% DMSO, concentration range from 0.8 nM-16.5 μM) were added 4 μl of a cAMP-d2/cell suspension (312500 cells/ml). After a 20-minute preincubation at room temperature (RT), 2 μl of a 3×PGE2 solution (0.3 nM, in PBS-IBMX) were added and incubated in the presence of the agonist for a further 60 mins at RT (volume: ˜6 μl). Next the reaction was stopped by addition of 2 μl of lysis buffer and incubated for a further 20 mins at RT before the actual measurement (volume: ˜8 μl).
(Time-resolved FRET reads energy transfer from a long-lived donor to a nearby acceptor.)

The next assay deals with T1, human PGD receptor (Homo sapiens, UniProt Q13258).
T1 sequence (Q13258 1-359): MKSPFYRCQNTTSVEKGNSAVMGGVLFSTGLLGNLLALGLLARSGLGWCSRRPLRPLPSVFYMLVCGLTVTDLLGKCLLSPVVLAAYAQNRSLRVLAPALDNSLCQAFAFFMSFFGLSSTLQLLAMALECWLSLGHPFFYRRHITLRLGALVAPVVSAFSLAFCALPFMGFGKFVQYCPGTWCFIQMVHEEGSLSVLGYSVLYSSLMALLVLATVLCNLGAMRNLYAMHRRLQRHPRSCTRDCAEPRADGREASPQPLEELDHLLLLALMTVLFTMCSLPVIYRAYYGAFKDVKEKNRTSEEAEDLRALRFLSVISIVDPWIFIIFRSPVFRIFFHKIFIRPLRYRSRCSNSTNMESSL
Kind of assay: cAMP antagonism test on the human prostaglandin D receptor (HTRF cAMP detection). As to conditions: selectivity towards hDP, IC50 measured by cAMP antagonism test.
From the text: 3. Detection of Antagonism to the Human Prostaglandin D Receptor Signal
The binding of prostaglandin D2 to the human PGD receptor induces the activation of membrane-located adenylate cyclases and leads to the formation of cAMP. In the presence of the phosphodiesterase inhibitor IBMX, the cAMP accumulated owing to this stimulation and released by cell lysis is used in a competitive detection method. In this test, the cAMP present in the lysate competes with a fluorescence-labelled cAMP (cAMP-d2) for binding to an Eu cryptate-labelled anti-cAMP antibody.
as §1
3.2.1. Test for Antagonism (Data Per Well of a 384-Well Plate):
To a test plate with the substance solutions already added (0.05 μl; 100% DMSO, concentration range from 0.8 nM-16.5 μM) were added 4 μl of a cAMP-d2/cell suspension (625000 cells/ml). After a 20-minute preincubation at room temperature (RT), 2 μl of a 3×PGD2 solution (6 nM, in PBS-IBMX) were added and incubated in the presence of the agonist for a further 30 mins at RT (volume: ˜6 μl). Next the reaction was stopped by addition of 2 μl of lysis buffer and incubated for a further 20 mins at RT before the actual measurement (volume: ˜8 μl).

EP2 subtype of the human PGE2 receptor, sequence (P43116 whole entry): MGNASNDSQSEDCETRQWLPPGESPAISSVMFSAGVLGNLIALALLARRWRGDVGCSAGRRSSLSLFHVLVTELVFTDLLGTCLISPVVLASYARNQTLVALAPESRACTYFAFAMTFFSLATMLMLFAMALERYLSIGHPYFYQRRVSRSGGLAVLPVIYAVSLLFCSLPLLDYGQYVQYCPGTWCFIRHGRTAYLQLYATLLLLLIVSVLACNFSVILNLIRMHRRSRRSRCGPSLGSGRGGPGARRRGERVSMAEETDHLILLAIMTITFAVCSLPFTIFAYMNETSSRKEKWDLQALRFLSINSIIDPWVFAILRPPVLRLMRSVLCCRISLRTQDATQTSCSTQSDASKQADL
EP4 subtype of the human PGE2 receptor, sequence (P35408 whole entry): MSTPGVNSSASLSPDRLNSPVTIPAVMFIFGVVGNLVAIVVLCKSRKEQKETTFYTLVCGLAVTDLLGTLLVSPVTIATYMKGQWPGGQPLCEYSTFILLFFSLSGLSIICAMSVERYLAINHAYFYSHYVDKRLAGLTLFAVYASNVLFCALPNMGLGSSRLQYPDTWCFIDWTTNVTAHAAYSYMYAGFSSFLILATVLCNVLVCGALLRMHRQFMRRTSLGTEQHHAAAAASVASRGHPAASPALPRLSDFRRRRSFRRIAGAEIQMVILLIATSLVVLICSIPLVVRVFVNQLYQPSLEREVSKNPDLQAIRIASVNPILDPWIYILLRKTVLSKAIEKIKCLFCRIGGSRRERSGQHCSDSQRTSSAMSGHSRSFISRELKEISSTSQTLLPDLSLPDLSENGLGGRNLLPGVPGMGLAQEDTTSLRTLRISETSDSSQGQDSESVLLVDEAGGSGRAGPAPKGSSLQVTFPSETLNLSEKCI

The term IC50 denotes the concentration that inhibits the measured activity by half. For the compound `Cc1cc2nn(CC3CN(C(=O)c4ccc(S(F)(F)(F)(F)F)cc4)C3)cc2cc1C(=O)NCCN1CCOCC1` [Example 280, 6-methyl-N-(2-morpholinoethyl)-2-({1-[4-(pentafluoro-λ^6-sulphanyl)benzoyl]-azetidin-3-yl}methyl)-2H-indazol-5-carboxamide], the concentration for half-maximal inhibition (IC50) in assay [1] stood at 30.7 nM. Moreover, the “Selectivity hEP2/hEP4” value in assay [2] was “xxx (xxx > 100)”. On human PGD receptor, the “Selectivity hEP2/hDP” value is “xxx (xxx > 100)”.
For `COCCNC(=O)c1ccc2nn(CC3CN(C(=O)c4ccc5cc(OC)ccc5c4)C3)cc2c1C` [Example 176, N-(2-methoxyethyl)-2-{[1-(6-methoxy-2-naphthoyl)azetidin-3-yl]methyl}-4-methyl-2H-indazol-5-carboxamide], in assay [1], the IC50 came out at 7.77 nM. Besides, the “Selectivity hEP2/hEP4” value in assay [2] was “xxx (xxx > 100)”. The “Selectivity hEP2/hDP” value on human PGD receptor is “xxx (xxx > 100)”.
With `COCCNC(=O)c1ccc2nn(CC3CCN(C(=O)c4ccc(-c5cncc(C(F)(F)F)c5)cc4)CC3)cc2c1C` [Example 387, N-(2-methoxyethyl)-4-methyl-2-[(1-{4-[5-(trifluoromethyl)pyridin-3-yl]-benzoyl}piperidin-4-yl)methyl]-2H-indazol-5-carboxamide], the IC50 in assay [1] was 13.2 nM. For the same compound, the “Selectivity hEP2/hEP4” value in assay [2] is “xxx (xxx > 100)”. Also, the “Selectivity hEP2/hDP” value at human PGD receptor is “xxx (xxx > 100)”.
With `Cc1c(C(=O)NCCS(C)(=O)=O)ccc2nn(CC3CCN(C(=O)c4ccc(-c5ccc(F)cc5F)cc4)CC3)cc12` [Example 398, 2-({1-[(2′,4′-difluorobiphenyl-4-yl)carbonyl]piperidin-4-yl}methyl)-N-(2-mesylethyl)-4-methyl-2H-indazol-5-carboxamide], in assay [1], the IC50 was determined as 18.2 nM. Also, the “Selectivity hEP2/hEP4” value in assay [2] is given as “xxx (xxx > 100)”. On human PGD receptor, the “Selectivity hEP2/hDP” value is “xxx (xxx > 100)”.
Consider `Cc1c(C(=O)NCCOC(C)C)ccc2nn(CC3CCN(C(=O)c4ccc(C5CC5)cc4)CC3)cc12` [Example 101, 2-{[1-(4-cyclopropyl-benzoyl)piperidin-4-yl]methyl}-N-(2-isopropoxyethyl)-4-methyl-2H-indazol-5-carboxamide], for which the IC50 in assay [1] came out at 6.58 nM. The “Selectivity hEP2/hEP4” value in assay [2] was “xxx (xxx > 100)”. Besides, at human PGD receptor, the “Selectivity hEP2/hDP” value was “xxx (xxx > 100)”.
As for `Cc1c(C(=O)NCC2CCCCO2)ccc2nn(CC3CN(C(=O)c4ccc(Cl)cc4)C3)cc12` (single isomer, unassigned) [Example 145, (R or S)-2-{[1-(4-chlorobenzoyl)azetidin-3-yl]methyl}-4-methyl-N-(3,4,5,6-tetrahydro-2H-pyran-2-ylmethyl)-2H-indazol-5-carboxamide], the 50% inhibitory concentration (IC50) in assay [1] amounted to 18.8 nM. Also, the “Selectivity hEP2/hEP4” value in assay [2] is reported as “xxx (xxx > 100)”. Further, on human PGD receptor, the “Selectivity hEP2/hDP” value is listed as “xxx (xxx > 100)”.
For the compound `Cc1cc2nn(CC3CCN(C(=O)c4ccc(Cl)cc4)CC3)cc2cc1C(=O)NCCN1CCOCC1` [Example 74, 2-{[1-(4-chlorobenzoyl)piperidin-4-yl]methyl}-6-methyl-N-(2-morpholinoethyl)-2H-indazol-5-carboxamide], the half-maximal inhibitory concentration (IC50) in assay [1] was 95.4 nM. Besides, the “Selectivity hEP2/hEP4” value in assay [2] is recorded as “xxx (xxx > 100)”. For the same compound, on human PGD receptor, the “Selectivity hEP2/hDP” value is on record as “xxx (xxx > 100)”.
With `COCCNC(=O)c1cc2cn(CC3CN(C(=O)c4ccc(Cl)cc4F)C3)nc2cc1C` [Example 183, 2-{[1-(4-chloro-2-fluorobenzoyl)azetidin-3-yl]methyl}-N-(2-methoxyethyl)-6-methyl-2H-indazol-5-carboxamide], the concentration for half-maximal inhibition (IC50) in assay [1] is 46.6 nM. Besides, the “Selectivity hEP2/hEP4” value in assay [2] is reported as “xxx (xxx > 100)”. Besides, at human PGD receptor, the “Selectivity hEP2/hDP” value is “xxx (xxx > 100)”.
In the case of `Cc1c(C(=O)NCC2COCCO2)ccc2nn(CC3CCN(C(=O)c4ccc(Cl)cc4)CC3)cc12` (single isomer, unassigned) [Example 415, (S or R)-2-{[1-(4-chlorobenzoyl)piperidin-4-yl]methyl}-N-(1,4-dioxan-2-ylmethyl)-4-methyl-2H-indazol-5-carboxamide], the half-maximal inhibitory concentration (IC50) in assay [1] turned out to be 21.3 nM. For the same compound, in assay [2], the “Selectivity hEP2/hEP4” value is on record as “xxx (xxx > 100)”. Besides, on human PGD receptor, the “Selectivity hEP2/hDP” value was “xxx (xxx > 100)”.
For `Cc1c(C(=O)NCCC(C)(C)O)ccc2nn(CC3CCN(C(=O)c4ccc(Cl)cc4)CC3)cc12` [Example 399, 2-{[1-(4-chlorobenzoyl)piperidin-4-yl]methyl}-N-(3-hydroxy-3-methylbutyl)-4-methyl-2H-indazol-5-carboxamide], the IC50 in assay [1] stood at 593 nM. For the same compound, the “Selectivity hEP2/hEP4” value in assay [2] is recorded as “xx (xx: 10-100)”. For the same compound, the “Selectivity hEP2/hDP” value at human PGD receptor was “xx (xx: 10-100)”.
Regarding `Cc1c(C(=O)NCC(C)C)ccc2nn(CC3CCN(C(=O)c4ccc(Cl)cc4)CC3)cc12` [Example 243, 2-{[1-(4-chlorobenzoyl)piperidin-4-yl]methyl}-N-isobutyl-4-methyl-2H-indazol-5-carboxamide], the 50% inhibitory concentration (IC50) in assay [1] came out at 335 nM. In assay [2], the “Selectivity hEP2/hEP4” value was “xx (xx: 10-100)”. Moreover, the “Selectivity hEP2/hDP” value on human PGD receptor was “xx (xx: 10-100)”.
Consider `COCCNC(=O)c1ccc2nn(CC3CCN(C(=O)c4ccc(-n5cncn5)cc4)CC3)cc2c1C` [Example 39, N-(2-methoxyethyl)-4-methyl-2-({1-[4-(1H-1,2,4-triazol-1-yl)benzoyl]piperidin-4-yl}methyl)-2H-indazol-5-carboxamide], for which the concentration for half-maximal inhibition (IC50) in assay [1] is 113 nM. For the same compound, in assay [2], the “Selectivity hEP2/hEP4” value is on record as “xxx (xxx > 100)”. For the same compound, the “Selectivity hEP2/hDP” value on human PGD receptor was “xxx (xxx > 100)”.
On to `COCCNC(=O)c1ccc2nn(CC3CN(C(=O)c4ccc(Br)cc4)C3)cc2c1OC` [Example 216, 2-{[1-(4-bromobenzoyl)azetidin-3-yl]methyl}-4-methoxy-N-(2-methoxyethyl)-2H-indazol-5-carboxamide], for which the IC50 in assay [1] worked out at 86.1 nM. In addition, the “Selectivity hEP2/hEP4” value in assay [2] was “xxx (xxx > 100)”. For the same compound, the “Selectivity hEP2/hDP” value on human PGD receptor was “xxx (xxx > 100)”.
